The numbers were not newly measured in patent publication US8119691B2, “Method for treating airway hyper-responsiveness with lipoxin analogs” (National Institutes of Health (NIH), priority 2001, dated 2012), which cites them from elsewhere.

One data set deals with eosinophil. As to conditions: cited from earlier work.
The test system of the next data set is human asthmatics. The settings on record: native LXA4 given to human asthmatics (ref. 22); cited from earlier work.
The target in data set [1] is T1, recombinant cysLT1 receptors (Homo sapiens, UniProt Q9Y271).
T1 construct: host or cells: Chinese hamster ovary cells (recombinant expression)
T1 sequence (Q9Y271 1-337): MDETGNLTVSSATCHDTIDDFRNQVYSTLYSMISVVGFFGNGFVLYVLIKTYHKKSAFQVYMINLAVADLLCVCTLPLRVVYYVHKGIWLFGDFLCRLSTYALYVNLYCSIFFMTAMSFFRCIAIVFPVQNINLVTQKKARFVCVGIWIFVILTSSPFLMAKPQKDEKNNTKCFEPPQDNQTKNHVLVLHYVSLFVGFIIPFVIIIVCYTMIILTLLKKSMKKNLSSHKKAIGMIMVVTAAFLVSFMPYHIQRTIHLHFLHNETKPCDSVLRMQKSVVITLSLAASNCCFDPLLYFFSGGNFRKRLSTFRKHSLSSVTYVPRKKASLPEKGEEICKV
The settings on record: CHO cells, in vitro (ref. 12); cited from earlier work.

The test system of a further data set is airway smooth muscle. The settings on record: in vitro (ref. 23); cited from earlier work.

As for `CCCCC[C@H](O)/C=C/C=C\C=C\C=C\[C@@H](O)[C@@H](O)CCCC(=O)O` [LXA4, Lipoxin A4], in the data set with eosinophil, the eosinophil chemotaxis result is recorded as “directly inhibits eosinophil chemotaxis”. The LTC4-stimulated airway hyper-responsiveness result with human asthmatics is reported as “inhibits LTC4-stimulated airway hyper-responsiveness”. Further, the “competition for binding at LTD4 recognition sites and recombinant cysLT1 receptors” value in data set [1] is on record as “compete for binding with high affinity at LTD4 recognition sites”. In addition, the “LTD4-initiated constriction of airway smooth muscle” value with airway smooth muscle was “blocks LTD4-initiated constriction of airway smooth muscle in vitro”.
